The text below walks through data of US9101565B2, “Dissolution stability of calcium carbonate tablets” (TAKEDA NYCOMED AS, priority 2008, dated 2015).

The first data set in a line: Test of compactability of different sugar alcohols (crushing strength vs compression force). As to conditions: pure sugar alcohol compacts, single punch press, punch and die lubricated with magnesium stearate; FIG. 1. In kind it is physicochemical. As for the experimental part: Tablets comprising either Neosorb P100T, Sorbidex P1666BO, Isomalt ST-PF, Maltisorb P90, Mannitol 60 or Xylitol CM50 were compressed on an instrumented Fette Exacta 1/F single punch tablet press, only maximum compression force on the upper punch was recorded.
Before the compression of each tablet the punch tips and the die bore were lubricated with a 5% suspension of magnesium stearate in acetone. The acetone was allowed to evaporate before compression of the tablet.
The sugar alcohol was weighed, transferred to the die bore and then compressed, see table 1. Immediately after ejection the tablet was tested for crushing strength.
From FIG. 1 (each point is the average of three measurements) it is seen that the assumption was correct. Therefore, test of particle size was not repeated for the other sugar alcohols.
The tabletting machine used is equipped with data acquisition that as a minimum measure the compaction force applied. However, any tabletting machine may be used provided the compaction force applied can be measured.
The crushing strength has been measured by use of a Schleuniger-2E from the company Dr. Schleuniger and determined as the mean of measuring the crushing strength for 10 individual tablets.
On to `OC[C@@H](O)[C@@H](O[C@H]1O[C@H](CO)[C@@H](O)[C@H](O)[C@H]1O)[C@H](O)[C@@H](O)CO` [Maltitol], for which the “compactability (slope of the correlation between compression force and crushing strength)” value is given as “very poor compactability”.

Consider `OC[C@@H](O)[C@@H](O)[C@H](O)[C@@H](O)CO` [sorbitol, Sorbitol], for which the “compactability (slope of the correlation between compression force and crushing strength)” value was “best compactability”.

For the compound `OC[C@@H](O)[C@@H](O)[C@H](O)[C@H](O)CO` [mannitol, Mannitol], the “compactability (slope of the correlation between compression force and crushing strength)” value is given as “very poor compactability”. Isomalt: the “compactability (slope of the correlation between compression force and crushing strength)” value was “Sorbitol is followed by isomalt”. Turning to `OC[C@@H](O)[C@H](O)[C@@H](O)CO` [xylitol, Xylitol], the “compactability (slope of the correlation between compression force and crushing strength)” value is on record as “very poor compactability”.

Staying with this data set, now noted: two mean particle sizes, 38 μm and 110 μm; FIG. 1.
As for `OC[C@@H](O)[C@@H](O)[C@H](O)[C@@H](O)CO` [sorbitol, Sorbitol], the “tablet crushing strength, dependence on particle size” value was “independent of particle size”.
